Reference: patent US6613512B1, “Apparatus and method for correcting for variable velocity in microfluidic systems” (Caliper Technologies Corp., priority 1997, dated 2003)

Columns and labels:
Format in all cases: biochemical
HCV protease = target: T1, HCV protease (Hepatitis C virus genotype 1a, UniProt P27958); settings: Chip; 25 mM TRIS/HCL, pH 8.5, 0.1% Triton X-100, 10 mM DTT, 1M NDSB-195
T1 construct: HCV protease was used in a similar fluorogenic assay
Experimental: The product fluorescence is proportional to the amount of cleaved substrate. The height of the product signal is proportional to the rate of enzyme turnover for that substrate concentration. The rate of fluorescence generation can be assessed as the fluorescence signal per mixing time of substrate and enzyme in the reaction channel. That mixing time is determined by the mean residence time of the fluorescent product in the reaction channel as it is electrokinetically pumped from the source of the mixing to the detector. Km was determined from the Michaelis Menton equation.
Due to the chemistry of this FRET quenching reaction, several considerations for accurate measurement of Km on the Labchip™ exist. (1.) There is not an accurate calibration curve for the EDANS labeled product. (2) Accurate determination of the substrate concentration in the Labchip™ reagent well by a simple spectrophotometric measurement is not performed. […]
Note however that this well controlled background fluorescence is not the substrate only background. The extent of substrate hydrolysis over time could not be measured in the continuous flow analysis where enzyme was pumped throughout the course of the experiments. […]
The average percent inhibition response was calculated for the first three inhibited and uninhibited signals at the start of each hour.

LAR phosphatase [1] = target: T2, LAR phosphatase (Homo sapiens, UniProt P10586); assay: Continuous flow LAR phosphatase assay with fluorogenic substrate dFMUP on a 7A microchip
T2 sequence (P10586 30-1907): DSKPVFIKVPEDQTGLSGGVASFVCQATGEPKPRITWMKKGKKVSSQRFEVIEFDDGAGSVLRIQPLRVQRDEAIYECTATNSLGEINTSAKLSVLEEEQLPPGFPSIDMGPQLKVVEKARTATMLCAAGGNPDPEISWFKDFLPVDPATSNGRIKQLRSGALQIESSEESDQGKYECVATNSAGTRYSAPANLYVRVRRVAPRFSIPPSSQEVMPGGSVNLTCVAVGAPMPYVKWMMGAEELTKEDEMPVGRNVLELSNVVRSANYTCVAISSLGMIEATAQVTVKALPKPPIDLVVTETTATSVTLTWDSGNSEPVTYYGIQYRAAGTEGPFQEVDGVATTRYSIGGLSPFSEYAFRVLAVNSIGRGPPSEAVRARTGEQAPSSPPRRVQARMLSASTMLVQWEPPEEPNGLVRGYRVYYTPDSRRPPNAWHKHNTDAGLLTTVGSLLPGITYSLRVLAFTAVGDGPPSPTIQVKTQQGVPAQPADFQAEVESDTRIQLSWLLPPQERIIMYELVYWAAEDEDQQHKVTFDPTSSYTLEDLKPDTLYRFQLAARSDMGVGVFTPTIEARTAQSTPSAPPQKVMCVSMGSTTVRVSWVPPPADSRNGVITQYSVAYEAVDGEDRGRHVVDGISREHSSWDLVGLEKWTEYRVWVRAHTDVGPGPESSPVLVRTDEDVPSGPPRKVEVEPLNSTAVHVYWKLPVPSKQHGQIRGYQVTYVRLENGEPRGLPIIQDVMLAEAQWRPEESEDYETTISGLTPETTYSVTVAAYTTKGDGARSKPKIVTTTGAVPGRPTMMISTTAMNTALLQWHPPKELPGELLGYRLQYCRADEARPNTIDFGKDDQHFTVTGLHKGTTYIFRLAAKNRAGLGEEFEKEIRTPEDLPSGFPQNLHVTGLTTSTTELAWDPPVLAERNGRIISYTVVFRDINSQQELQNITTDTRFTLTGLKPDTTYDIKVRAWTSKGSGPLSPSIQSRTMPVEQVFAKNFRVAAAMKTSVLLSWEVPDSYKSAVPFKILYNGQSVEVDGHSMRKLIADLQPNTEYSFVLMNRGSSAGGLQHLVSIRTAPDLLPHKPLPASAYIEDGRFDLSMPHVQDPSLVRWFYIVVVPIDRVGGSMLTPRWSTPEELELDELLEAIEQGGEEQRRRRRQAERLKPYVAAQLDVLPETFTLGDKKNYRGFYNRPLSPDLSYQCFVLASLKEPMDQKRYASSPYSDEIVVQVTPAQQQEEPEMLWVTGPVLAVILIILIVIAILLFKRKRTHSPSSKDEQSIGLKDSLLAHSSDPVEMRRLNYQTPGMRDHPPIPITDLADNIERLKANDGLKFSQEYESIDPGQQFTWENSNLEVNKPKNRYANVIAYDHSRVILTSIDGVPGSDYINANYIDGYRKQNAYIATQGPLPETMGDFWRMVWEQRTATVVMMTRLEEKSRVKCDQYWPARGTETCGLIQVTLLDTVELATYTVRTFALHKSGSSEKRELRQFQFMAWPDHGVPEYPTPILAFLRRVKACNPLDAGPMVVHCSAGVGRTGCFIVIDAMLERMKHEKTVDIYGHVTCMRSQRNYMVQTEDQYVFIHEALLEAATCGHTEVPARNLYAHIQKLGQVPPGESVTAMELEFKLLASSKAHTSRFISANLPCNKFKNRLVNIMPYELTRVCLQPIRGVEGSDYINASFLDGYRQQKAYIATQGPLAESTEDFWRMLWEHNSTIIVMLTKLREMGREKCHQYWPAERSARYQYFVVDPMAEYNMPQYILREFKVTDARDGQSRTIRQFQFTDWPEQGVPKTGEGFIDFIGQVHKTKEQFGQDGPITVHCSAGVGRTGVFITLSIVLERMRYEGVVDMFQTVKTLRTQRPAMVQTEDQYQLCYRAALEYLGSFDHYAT
Description: In many cases, the biochemical system that is being assayed can be selected or engineered to have an easily detectable result. For example, assaying enzyme function is typically made simple by utilizing fluorogenic substrates for the enzyme, e.g., non-fluorescent substrates which yield fluorescent products. Such assays are readily incorporated into microfluidic devices for performance of assays to identify compounds that may effect normal enzyme activity. In one embodiment, using a 7A chip as described supra (see, e.g., FIG. 7), one continuously flows enzyme and fluorogenic substrate through a channel of the device. This continuous flow of enzyme and substrate produces a steady state fluorescent signal from the fluorescent product. Enzyme inhibitor (or, e.g., compounds for which one wishes to test inhibitory activity) are periodically introduced into the main channel. These inhibitors then reduce the amount of product produced within the main channel resulting in a deviation from the steady state signal. Specifically, both phosphatase assays and protease assays were performed using a 7A chip.
The phosphatase assay utilizes a fluorogenic substrate dFMU, which produces a fluorescent signal upon dephosphorylation. The reaction is shown schematically in FIG. 12. […] In this experiment, the running buffer was 1 M NDSB-195 in 25 mM HEPES, pH 7.9. Reagent concentrations were 125 nM LAR, 50 μM dFMUP and 200 μM peptide inhibitor in wells 6, 8 and 2 respectively. Each reagent well was paired with a well containing running buffer. The system was programmed to repeatedly run a sixteen-step loop of experiments. The sixteen steps were a series of controls followed by the enzyme plus substrate experiment. Each step of the loop conserved the total current flux in the main reaction channel. The total flux remained constant during each step of the loop by maintaining a constant sum of currents from the wells. The proportion of that overall flux from each reagent and buffer well was selected to provide the desired final reagent concentration in the main reaction channel. The fluorescence response was monitored in each of the sixteen experimental steps where the continuous flow stream alternated between buffer, substrate, buffer, substrate plus enzyme at four different substrate concentrations. An example of a controller program is shown below, Table 2.
The substrate concentration was varied for each sequence of three controls followed by the enzyme reaction. The concentrations of the reagents in the main channel can be calculated from the ratio of currents used to pump the reagents. The concentrations in the reaction channel are simply the concentration in the well multiplied by the ratio of current applied at that well, divided by the total current. Here the reaction mixture was […], and either 5, 12.5, 17 or 25 μM dFMUP. The raw fluorescence data is plotted as a function of time. […] Rise times for the enzyme/substrate signal are less than 5 seconds. The background signal remained low over the course of many experimental cycles.
The raw data for the Km, Vmax, kcat and Ki determinations are plotted in FIG. 14. Each trace represents a set of experiments performed in seven step cycles. The enzyme solution was pumped continuously, providing a final concentration of 83 nM LAR in 1 M NDSB-195, 50 mM HEPES, pH 7.5 in the reaction channel, while the signal at various substrate concentrations was recorded. The first step of the cycle is an enzyme only control. Steps two through six contain different levels of substrate up to an including 17 μM dFMUP. The final step of the cycle is a substrate only control, 17 μM dFMUP with no enzyme. The entire experiment, (no peptide inhibitor), was repeated at two inhibitor concentrations, 35 uM and 69 uM peptide. […]

LAR phosphatase [2] = target: T2, LAR phosphatase; assay: LAR phosphatase/dFMUP assay in a cuvette on the spectrophotometer; settings: 1M NDSB-195/50 mM Hepes, pH 7.5, 0.1 mg/ml BSA
Experimental: A least squares fit of the three straight lines: no inhibitor, 35 μM and 69 μM peptide, was performed with the constraint that they meet at a common intercept on the y axis, 1/Vmax FIG. 15. […] The kcat is 4.74 μmol/min nmol LAR. The parallel analysis performed on the spectrophotometer in the same running buffer yielded a kcat of 6 μmol/min nmol LAR. […] The same analysis performed in a cuvette experiment with 1 mg/ml BSA in the running buffer gave 167 μM peptide.
In addition to the above kinetic studies, rate as a function of substrate concentration data was collected on three separate chips in order to consider interchip reproducibility for Km analyses. The combined data were used to prepare a double reciprocal plot. […] This is in excellent agreement with cuvette experiments performed on the spectrophotometer where dFMU was detected at 360 nm in a temperature controlled cuvette at 25° C.

[3] = chip, 50 mM HEPES, pH 7.5, 10 mM DTT, 0.5 M NDSB-195

T1 sequence (P27958 1027-1208): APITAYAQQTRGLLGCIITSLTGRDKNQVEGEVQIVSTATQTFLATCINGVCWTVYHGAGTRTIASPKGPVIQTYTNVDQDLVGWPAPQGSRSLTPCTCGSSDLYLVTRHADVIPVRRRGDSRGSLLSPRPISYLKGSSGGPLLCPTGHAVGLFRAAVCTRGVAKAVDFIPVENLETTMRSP

| SMILES | Km (HCV protease) [µM] | kcat (LAR phosphatase [1]; Chip, 1M NDSB-195/50 mM Hepes, pH 7.5, 83 nM LAR) [μmol/min nmolLAR] | Km (LAR phosphatase [1]; Chip, 1M NDSB-195/50 mM Hepes, pH 7.5, average of three chips, read-out: Km LAR/dFMUP) [µM] | Km (LAR phosphatase [1]; Chip, combined data of three separate chips, double reciprocal plot, read-out: Km) [µM] | Vmax (LAR phosphatase [1]; Chip, least squares fit of Lineweaver-Burke lines, 83 nM LAR) [μM dFMU/s] | Vmax (LAR phosphatase [1]; [3]) [mM/s] | kcat (LAR phosphatase [1]; [3]) [min⁻¹] | Km (LAR phosphatase [1]; chip, 50 mM HEPES, pH 7.5, 10 mM DTT, 0.5 M NDSB-195, read-out: Km) [µM] | kcat (LAR phosphatase [2]; Cuvette (spectrophotometer)) [μmol/min nmolLAR] | Km (LAR phosphatase [2]; Cuvette, 25° C, average of four determinations) [µM] |
| --- | --- | --- | --- | --- | --- | --- | --- | --- | --- | --- |
| C/C=C1\NC(=O)[C@H]2CSSCC/C=C/[C@H](CC(=O)N[C@H](C(C)C)C(=O)N2)OC(=O)[C@H](C(C)C)NC1=O [Depsipeptide] | 110 |  |  |  |  |  |  |  |  |  |
| Cc1cc(=O)oc2c(F)c(OP(=O)(O)O)c(F)cc12 [dFMUP] |  | 4.74 | 18.7 | 18.2 | 6.71 | 0.011 | 3000 to 5000 | 20 to 400 | 6 | 23.2 |
